The results in this text go back to patent US12146010B2, “Amine co-initiator mixture” (Arkema UK Limited, priority 2019, dated 2024).

Data set [1] can be described thus: Solubility of amines and amine mixtures in acrylate resins. The conditions noted are these: for Solubility (% w/w at ~15-20° C.): stays in solution at least 7 days, above 10% w/w not tested; for Dissolution of the solid material: at 1% w/w in the acrylate resins. It counts as physicochemical. The method, then:
This example illustrates the improved solubility of the co-initiator mixtures compared to single component amine co-initiator compositions, illustrating the benefit of providing a composition comprising both the compound of Formula I and the ancillary amine. For comparison, the solubility of amine mixtures as provided by this invention, of which mixtures AM1-AM6 are representative examples, were tested alongside single component formulations comprising only the amines AC1-AC5.
Mixtures of amine synergists were prepared using one of the methods described above.
The solid amines AC1-AC5 or mixtures of amines AM1-AM6 were added portion-wise in 1% w/w portions to stirred 5.0 g samples of the following acrylate resins and the samples were stirred at 15-20° C. until all solid material was completely dissolved: HDDA (1,6-hexanediol diacrylate), TMPTA (trimethylolpropane triacrylate), TPGDA (tripropyleneglycol diacrylate). At the concentrations given below (Table 2a-2k) all solids remained in solution for at least 7 days at 15-20° C. unless otherwise stated. In cases where the solids began to crystallise out of solution within this time the mixtures were warmed to approx. 40° C. to re-dissolve the solids and the concentrations were adjusted to the given values by the addition of extra resin, whereupon the solids remained dissolved at the adjusted concentration for at least 7 days at 15-20° C. Solubility above 10% w/w was not tested in any case. The weight % is based on the total weight of the mixture.

Data set [2] is described as follows: UV curing experiments: passes under Hg lamp to tack-free / thumb-twist cure. The conditions noted are these: approx. 16 m/min belt speed, 0.20 g amine in 4.0 g resin with 1% 2-ITX and 4% BP. Here is the method: The following example illustrates the high curing speed of co-initiators which contain the compound of Formula I and the ancillary amine. For comparison, the commercially available amine co-initiators SpeedCure EDB (Lambson Limited) and diffusion-hindered polymeric amine SpeedCure 7040 (Lambson Limited) were also tested. Additionally, the pure amines AC1-AC5 were tested alongside the mixtures provided by this invention, of which the mixtures AM1-AM6 are representative examples.
The amine co-initiators or co-initiator mixtures (0.20 g) were added to a resin mixture (4.0 g) containing 1% w/w SpeedCure 2-ITX (Lambson Limited) and 4% w/w SpeedCure BP (Lambson Limited) in 70:30 ethoxylated bisphenol A dimethacrylate (EO/phenol 10):trimethylolpropane triacrylate with stirring at 15-20° C. until all solid material had dissolved.
Formulations were cured at 6 and 24 μm film thicknesses under Hg lamp using a Dymax curing instrument with approx. 16 m/min belt speed. The number of passes under the lamp required to give a ‘tack-free’ (TF) coating (as determined when the surface of the coating no longer feels sticky when lightly touched) or full cure as determined by the ‘thumb-twist’ test (TT) (i.e. until no visible mark is made when a thumb is pressed down firmly onto the coating with a twisting motion) are given in Table 3.

The mark [3] stands for this setting: in HDDA (1,6-hexanediol diacrylate).
[4] abbreviates: in TMPTA (trimethylolpropane triacrylate).
Where [5] appears, read: in TPGDA (tripropyleneglycol diacrylate).

Consider `CCC(COCC(CC)(COC(=O)c1ccc(N(C)C)cc1)COC(=O)c1ccc(N(C)C)cc1)(COC(=O)c1ccc(N(C)C)cc1)COC(=O)c1ccc(N(C)C)cc1` [AC1], for which the “Solubility (% w/w at ~15-20° C.)” value in data set [1] (setting [3]) came to 5 % w/w; in data set [1] (setting [4]), 4 % w/w; in data set [1] (setting [5]) it was 3 % w/w. Besides, the “No. of Passes Required, TF (tack-free)” value in data set [2] (6 μm film) and in data set [2] (24 μm film) was 1 passes throughout. Further, the “No. of Passes Required, TT (thumb-twist, full cure)” value (“No. of Passes Required, TT” for short) was 5 passes in data set [2] (6 μm film) and 2 passes in data set [2] (24 μm film).
On to `CCC(CO)(COCC(CC)(COC(=O)c1ccc(N(C)C)cc1)COC(=O)c1ccc(N(C)C)cc1)COC(=O)c1ccc(N(C)C)cc1` (stereo not drawn) [AC2], for which the “Solubility (% w/w at ~15-20° C.)” value in data set [1] (setting [3]), in data set [1] (setting [4]) and in data set [1] (setting [5]) was 10 % w/w throughout. Further, the “No. of Passes Required, TF (tack-free)” value in data set [2] (6 μm film) and in data set [2] (24 μm film) was 1 passes in each case. Further, the “No. of Passes Required, TT” value in data set [2] (6 μm film) came to 6 passes; in data set [2] (24 μm film), 2 passes.
For the molecule `CCC(COC(=O)c1ccc(N(C)C)cc1)(COC(=O)c1ccc(N(C)C)cc1)COC(=O)c1ccc(N(C)C)cc1` [AC3], the “Solubility (% w/w at ~15-20° C.)” value in data set [1] (setting [3]), in data set [1] (setting [4]) and in data set [1] (setting [5]) was less than 2 % w/w each time. Moreover, in data set [1] (initially dissolved at 2% w/w, all three resins), the “Time until solid crystallised out of solution” value is on record as not above 24 h.
For the molecule `CN(C)c1ccc(C(=O)OCC(COC(=O)c2ccc(N(C)C)cc2)(COC(=O)c2ccc(N(C)C)cc2)COC(=O)c2ccc(N(C)C)cc2)cc1` [AC4], in data set [1], the “Dissolution of the solid material” value is “would not dissolve”. In addition, the “Solubility (% w/w at ~15-20° C.)” value in data set [1] (setting [3]), in data set [1] (setting [4]) and in data set [1] (setting [5]) was less than 1 % w/w each time.
As for `CN(C)c1ccc(C(=O)OCC(COC(=O)c2ccc(N(C)C)cc2)OC(=O)c2ccc(N(C)C)cc2)cc1` [AC5], in data set [1], the “Dissolution of the solid material” value is on record as “would not dissolve”. Moreover, the “Solubility (% w/w at ~15-20° C.)” value in data set [1] (setting [3]), in data set [1] (setting [4]) and in data set [1] (setting [5]) was less than 1 % w/w each time.
`CCOC(=O)c1ccc(N(C)C)cc1` [SpeedCure EDB, ethyl 4-(dimethylamino)benzoate, reference compound]: the “No. of Passes Required, TF (tack-free)” value in data set [2] (6 μm film) and in data set [2] (24 μm film) was 1 passes in each case. Besides, the “No. of Passes Required, TT” value came to 6 passes in data set [2] (6 μm film) and 2 passes in data set [2] (24 μm film).
